Laboratory results published in patent US12473324B2, “Triazine-based amphiphilic compound and use thereof” (INDUSTRY-UNIVERSITY COOPERATION FOUNDATION HANYANG …, priority 2019, dated 2025).

Experiments:
[1] = Critical micelle concentration (CMC) by fluorescent dye diphenylhexatriene (DPH); assay type: physicochemical; conditions: DPH fluorescence
Protocol: A method of measuring the CMC is not particularly limited, but a method widely known in the art may be used, and for example, the CMC may be measured by a fluorescent staining method using diphenylhexatriene (DPH).
(§1) Specifically, the critical micelle concentrations (CMCs) were measured using a fluorescent dye, diphenylhexatriene (DPH), and the hydrodynamic radii (Rh) of micelles formed by each preparation (1.0 wt %) were determined by a dynamic light scattering (DLS) experiment. The measured results are shown in Table 1 compared to DDM which is an existing amphiphilic molecule (detergent).

[2] = Hydrodynamic radius (Rh) of micelles by dynamic light scattering (DLS); assay type: physicochemical; conditions: 1.0 wt % detergent
Protocol: A method of measuring the radius of micelle is not particularly limited, but a method widely known in the art may be used, and for example, the radius of micelle may be measured using a dynamic light scattering (DLS) experiment.
as §1

[3] = Solubility of detergent (Table 1); assay type: physicochemical
[4] = test system: leucine transporter (LeuT); test: LeuT structural stability: [3H]-Leu binding by scintillation proximity assay (SPA); assay type: biochemical, Aquifex aeolicus; conditions: CMC+0.04 wt % or CMC+0.2 wt %, room temperature, 13-day incubation, [3H]-Leu SPA
Protocol: Experiments were performed to measure the structural stability of the LeuT protein by TSMs, TTGs and TEMs. Each amphiphilic compound was used at a concentration of (a) CMC+0.04 wt % or (b) CMC+0.2 wt %, and the substrate binding properties of LeuT were measured using [^3H]-Leu via scintillation proximity assay (SPA). The measurement was performed at regular intervals over the course of a 13-day and 12-day incubation at room temperature, respectively.
Specifically, a wild-type leucine transporter (LeuT) derived from the thermophilic bacterium Aquifex aeolicus was purified by a previously described method (Nature 1998, 392, 353-358 by G. Deckert et al.). LeuT was expressed in E. coli C41 (DE3) transformed with pET16b encoding the C-terminal 8×His-tagged transporter (expression plasmids were provided from Dr E. Gouaux, Vollum Institute, Portland, Oregon, USA). In summary, after a bacterial membrane was isolated and solubilized in 1 wt % DDM, the protein was bound to Ni^2+-NTA resin (Life Technologies, Denmark), and eluted in 20 mM Tris-HCl (pH 8.0), 1 mM NaCl, 199 mM KCl, 0.05% (w/v) DDM and 300 mM imidazole. Then, the purified LeuT (0.5 mg/ml) was diluted with buffers supplemented with TSMs, TTGs, TEMs or DDM at a final concentration of CMC+0.04% (w/v) or CMC+0.2% (w/v) except for DDM and imidazole in the equivalent buffer described above. Protein samples were incubated at room temperature for 13 days, centrifuged at a specified time, and protein properties were confirmed by measuring [^3H]-Leucine binding ability using SPA. SPA was performed with 5 μL of each protein sample in a buffer containing 450 mM NaCl and each of TSMs and TEMs (or DDM). The SPA reaction was performed in the presence of 20 nM [^3H]-Leucine and 1.25 mg/ml copper chelate (His-Tag) YSi beads (PerkinElmer, Denmark). Overall [^3H]-Leucine coupling to each sample was measured using a MicroBeta liquid scintillation counter (Perkin Elmer).

Row | Structure (SMILES) | CMC [1] [mM] | Rh (nm) [2] [nm] | solubility [3] [%] | LeuT substrate binding properties over incubation [4]
1 | CCCCCCCSc1nc(NC(CO[C@@H]2O[C@H](CO)[C@@H](O)[C@H](O)[C@H]2O)(CO[C@@H]2O[C@H](CO)[C@@H](O)[C@H](O)[C@H]2O)CO[C@@H]2O[C@H](CO)[C@@H](O)[C@H](O)[C@H]2O)nc(SCCCCCCC)n1 [TTG-T7] | ~0.02 | 2.8 ± 0.16 | ~10 | 
2 | CCCCCCCCCCNc1nc(NCCCCCCCCCC)nc(NC(CO[C@@H]2O[C@H](CO)[C@@H](O)[C@H](O)[C@H]2O)(CO[C@@H]2O[C@H](CO)[C@@H](O)[C@H](O)[C@H]2O)CO[C@@H]2O[C@H](CO)[C@@H](O)[C@H](O)[C@H]2O)n1 [TTG-A10] | ~0.3 | 2.3 ± 0.14 | ~10 | 
3 | CCCCCCCOc1nc(NC(CO[C@@H]2O[C@H](CO)[C@@H](O[C@H]3O[C@H](CO)[C@@H](O)[C@H](O)[C@H]3O)[C@H](O)[C@H]2O)CO[C@@H]2O[C@H](CO)[C@@H](O[C@H]3O[C@H](CO)[C@@H](O)[C@H](O)[C@H]3O)[C@H](O)[C@H]2O)nc(OCCCCCCC)n1 [TSM-E7] | ~0.04 | 3.4 ± 0.1 | ~10 | 
4 | CCCCCCCCCCSc1nc(NC(CO[C@@H]2O[C@H](CO)[C@@H](O[C@H]3O[C@H](CO)[C@@H](O)[C@H](O)[C@H]3O)[C@H](O)[C@H]2O)CO[C@@H]2O[C@H](CO)[C@@H](O[C@H]3O[C@H](CO)[C@@H](O)[C@H](O)[C@H]3O)[C@H](O)[C@H]2O)nc(SCCCCCCCCCC)n1 [TSM-T10] | ~0.003 | 38.2 ± 1.8 | ~5 | best substrate binding activity
5 | CCCCCCCCCCSc1nc(SCCCCCCCCCC)nc(N(CCO[C@@H]2O[C@H](CO)[C@@H](O[C@H]3O[C@H](CO)[C@@H](O)[C@H](O)[C@H]3O)[C@H](O)[C@H]2O)CCO[C@@H]2O[C@H](CO)[C@@H](O[C@H]3O[C@H](CO)[C@@H](O)[C@H](O)[C@H]3O)[C@H](O)[C@H]2O)n1 [TEM-T10] | ~0.0025 | 4.3 ± 0.0 | ~5 | best substrate binding activity
6 | CCCCCCCCOc1nc(NC(CO[C@@H]2O[C@H](CO)[C@@H](O[C@H]3O[C@H](CO)[C@@H](O)[C@H](O)[C@H]3O)[C@H](O)[C@H]2O)CO[C@@H]2O[C@H](CO)[C@@H](O[C@H]3O[C@H](CO)[C@@H](O)[C@H](O)[C@H]3O)[C@H](O)[C@H]2O)nc(OCCCCCCCC)n1 [TSM-E8] | ~0.02 | 3.6 ± 0.1 | ~10 | best substrate binding activity
7 | CCCCCCCCNc1nc(NCCCCCCCC)nc(NC(CO[C@@H]2O[C@H](CO)[C@@H](O)[C@H](O)[C@H]2O)(CO[C@@H]2O[C@H](CO)[C@@H](O)[C@H](O)[C@H]2O)CO[C@@H]2O[C@H](CO)[C@@H](O)[C@H](O)[C@H]2O)n1 [TTG-A8] | ~0.6 | 2.1 ± 0.56 | ~10 | 
8 | CCCCCCCCCCCCCCNc1nc(NCCCCCCCCCCCCCC)nc(NC(CO[C@@H]2O[C@H](CO)[C@@H](O)[C@H](O)[C@H]2O)(CO[C@@H]2O[C@H](CO)[C@@H](O)[C@H](O)[C@H]2O)CO[C@@H]2O[C@H](CO)[C@@H](O)[C@H](O)[C@H]2O)n1 [TTG-A14] | ~0.008 | 3.2 ± 0.05 | ~1 | 
9 | CCCCCCCCSc1nc(NC(CO[C@@H]2O[C@H](CO)[C@@H](O)[C@H](O)[C@H]2O)(CO[C@@H]2O[C@H](CO)[C@@H](O)[C@H](O)[C@H]2O)CO[C@@H]2O[C@H](CO)[C@@H](O)[C@H](O)[C@H]2O)nc(SCCCCCCCC)n1 [TTG-T8] | ~0.015 | 2.9 ± 0.09 | ~10 | 
10 | CCCCCCCCCCCSc1nc(SCCCCCCCCCCC)nc(N(CCO[C@@H]2O[C@H](CO)[C@@H](O[C@H]3O[C@H](CO)[C@@H](O)[C@H](O)[C@H]3O)[C@H](O)[C@H]2O)CCO[C@@H]2O[C@H](CO)[C@@H](O[C@H]3O[C@H](CO)[C@@H](O)[C@H](O)[C@H]3O)[C@H](O)[C@H]2O)n1 [TEM-T11] | ~0.001 | 31.8 ± 0.3 | ~1 | 
11 | CCCCCCCCCCCNc1nc(NCCCCCCCCCCC)nc(NC(CO[C@@H]2O[C@H](CO)[C@@H](O)[C@H](O)[C@H]2O)(CO[C@@H]2O[C@H](CO)[C@@H](O)[C@H](O)[C@H]2O)CO[C@@H]2O[C@H](CO)[C@@H](O)[C@H](O)[C@H]2O)n1 [TTG-A11] | ~0.2 | 2.4 ± 0.11 | ~10 | 
12 | CCCCCCCCCCCSc1nc(NC(CO[C@@H]2O[C@H](CO)[C@@H](O[C@H]3O[C@H](CO)[C@@H](O)[C@H](O)[C@H]3O)[C@H](O)[C@H]2O)CO[C@@H]2O[C@H](CO)[C@@H](O[C@H]3O[C@H](CO)[C@@H](O)[C@H](O)[C@H]3O)[C@H](O)[C@H]2O)nc(SCCCCCCCCCCC)n1 [TSM-T11] | ~0.001 | 94.8 ± 45 | ~1 | 
13 | CCCCCCCCCOc1nc(NC(CO[C@@H]2O[C@H](CO)[C@@H](O[C@H]3O[C@H](CO)[C@@H](O)[C@H](O)[C@H]3O)[C@H](O)[C@H]2O)CO[C@@H]2O[C@H](CO)[C@@H](O[C@H]3O[C@H](CO)[C@@H](O)[C@H](O)[C@H]3O)[C@H](O)[C@H]2O)nc(OCCCCCCCCC)n1 [TSM-E9] | ~0.01 | 4.0 ± 0.1 | ~10 | 
14 | CCCCCCCCCNc1nc(NCCCCCCCCC)nc(NC(CO[C@@H]2O[C@H](CO)[C@@H](O)[C@H](O)[C@H]2O)(CO[C@@H]2O[C@H](CO)[C@@H](O)[C@H](O)[C@H]2O)CO[C@@H]2O[C@H](CO)[C@@H](O)[C@H](O)[C@H]2O)n1 [TTG-A9] | ~0.5 | 2.2 ± 0.20 | ~10 | 
15 | CCCCCCCCCCCOc1nc(OCCCCCCCCCCC)nc(N(CCO[C@@H]2O[C@H](CO)[C@@H](O[C@H]3O[C@H](CO)[C@@H](O)[C@H](O)[C@H]3O)[C@H](O)[C@H]2O)CCO[C@@H]2O[C@H](CO)[C@@H](O[C@H]3O[C@H](CO)[C@@H](O)[C@H](O)[C@H]3O)[C@H](O)[C@H]2O)n1 [TEM-E11] | ~0.001 | 25.2 ± 1.2 | ~1 | 
16 | CCCCCCCCCCCCNc1nc(NCCCCCCCCCCCC)nc(NC(CO[C@@H]2O[C@H](CO)[C@@H](O)[C@H](O)[C@H]2O)(CO[C@@H]2O[C@H](CO)[C@@H](O)[C@H](O)[C@H]2O)CO[C@@H]2O[C@H](CO)[C@@H](O)[C@H](O)[C@H]2O)n1 [TTG-A12] | ~0.04 | 2.5 ± 0.07 | ~5 | 
